Activity calls are given as the source filed them. The rule behind the calls is not given here.
How the values were obtained:
[1] = target: 5'-AMP-activated protein kinase catalytic subunit alpha-1 (Homo sapiens) (UniProt Q13131); assay: Inhibition of AMPKa1 in human NCI-H929 cells at 10 uM by mass spectroscopic analysis relative to control; type: cell-based
[2] = target: 5'-AMP-activated protein kinase catalytic subunit alpha-2 (Homo sapiens) (UniProt P54646); assay: Inhibition of AMPKa2 in human NCI-H929 cells at 10 uM by mass spectroscopic analysis relative to control; type: cell-based
[3] = target: Cyclin-dependent kinase 19 (Homo sapiens) (UniProt Q9BWU1); assay: Inhibition of CDK11 in human NCI-H929 cells at 10 uM by mass spectroscopic analysis relative to control; type: cell-based
[4] = target: Cyclin-dependent kinase 8 (Homo sapiens) (UniProt P49336); assay: Inhibition of CDK8 in human NCI-H929 cells at 10 uM by mass spectroscopic analysis relative to control; type: cell-based
[5] = target: DNA-dependent protein kinase catalytic subunit (Homo sapiens) (UniProt P78527); assay: Inhibition of DNAPK in human NCI-H929 cells at 10 uM by mass spectroscopic analysis relative to control; type: cell-based
[6] = target: Serine/threonine-protein kinase 26 (Homo sapiens) (UniProt Q9P289); assay: Inhibition of MST4 in human NCI-H929 cells at 10 uM by mass spectroscopic analysis relative to control; type: cell-based
[7] = target: Bone morphogenetic protein receptor type-1B (Homo sapiens) (UniProt O00238); assay: Inhibition of BMPR1B in human NCI-H929 cells at 10 uM by mass spectroscopic analysis relative to control; type: cell-based
[8] = target: Microtubule-associated serine/threonine-protein kinase 2 (Homo sapiens) (UniProt Q6P0Q8); assay: Inhibition of MAST2 in human NCI-H929 cells at 10 uM by mass spectroscopic analysis relative to control; type: cell-based
[9] = target: T1, Aurora kinase C (Homo sapiens) (UniProt Q9UQB9); assay: Inhibition of AURC in human NCI-H929 cells at 10 uM by mass spectroscopic analysis relative to control; type: cell-based
T1 sequence (whole entry): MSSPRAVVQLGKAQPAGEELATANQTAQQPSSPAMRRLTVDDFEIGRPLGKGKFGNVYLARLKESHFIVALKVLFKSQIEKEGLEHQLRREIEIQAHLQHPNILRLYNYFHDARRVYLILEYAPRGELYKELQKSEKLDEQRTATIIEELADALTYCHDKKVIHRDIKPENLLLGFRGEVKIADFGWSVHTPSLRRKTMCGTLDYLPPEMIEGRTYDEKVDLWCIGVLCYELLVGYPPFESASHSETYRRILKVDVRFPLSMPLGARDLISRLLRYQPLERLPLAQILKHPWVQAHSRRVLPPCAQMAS

[10] = target: T2, Serine/threonine-protein kinase TAO1 (Homo sapiens) (UniProt Q7L7X3); assay: Inhibition of TAO1 in human NCI-H929 cells at 10 uM by mass spectroscopic analysis relative to control; type: cell-based
T2 sequence (whole entry): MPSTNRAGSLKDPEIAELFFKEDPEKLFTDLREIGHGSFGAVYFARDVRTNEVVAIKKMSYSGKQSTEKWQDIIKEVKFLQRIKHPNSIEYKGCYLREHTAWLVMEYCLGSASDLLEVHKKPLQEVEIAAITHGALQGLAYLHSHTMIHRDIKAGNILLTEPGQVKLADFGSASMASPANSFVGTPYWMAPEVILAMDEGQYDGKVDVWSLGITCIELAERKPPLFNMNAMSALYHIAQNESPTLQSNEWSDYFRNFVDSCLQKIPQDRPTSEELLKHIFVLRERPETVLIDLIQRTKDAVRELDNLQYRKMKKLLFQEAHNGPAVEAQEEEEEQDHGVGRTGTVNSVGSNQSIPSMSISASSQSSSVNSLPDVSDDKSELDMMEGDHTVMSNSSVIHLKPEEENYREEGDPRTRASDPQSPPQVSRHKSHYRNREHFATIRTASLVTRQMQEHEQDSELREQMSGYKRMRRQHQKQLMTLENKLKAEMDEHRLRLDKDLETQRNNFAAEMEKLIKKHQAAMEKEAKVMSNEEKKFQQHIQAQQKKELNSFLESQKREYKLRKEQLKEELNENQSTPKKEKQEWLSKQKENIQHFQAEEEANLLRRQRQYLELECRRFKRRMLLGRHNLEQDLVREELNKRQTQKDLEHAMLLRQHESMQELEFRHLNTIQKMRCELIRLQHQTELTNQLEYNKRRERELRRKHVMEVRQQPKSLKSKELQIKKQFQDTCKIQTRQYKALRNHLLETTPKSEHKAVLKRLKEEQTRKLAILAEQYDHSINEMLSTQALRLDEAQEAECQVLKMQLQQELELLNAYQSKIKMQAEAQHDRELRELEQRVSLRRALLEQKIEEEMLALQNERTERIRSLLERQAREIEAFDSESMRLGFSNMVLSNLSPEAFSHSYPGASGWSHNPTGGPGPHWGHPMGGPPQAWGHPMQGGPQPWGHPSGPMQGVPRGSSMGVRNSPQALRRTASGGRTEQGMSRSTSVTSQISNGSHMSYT

MM1.S = assay: Upregulation of YAP1 protein level in human MM1.S cells at 1 uM measured after 16 hrs by Western blot analysis; type: functional, cell-based
[11] = target: Rho-associated protein kinase 1 (Homo sapiens) (UniProt Q13464); assay: Inhibition of ROCK1 in human NCI-H929 cells at 10 uM by mass spectroscopic analysis relative to control; type: cell-based
[12] = target: Rho-associated protein kinase 2 (Homo sapiens) (UniProt O75116); assay: Inhibition of ROCK2 in human NCI-H929 cells at 10 uM by mass spectroscopic analysis relative to control; type: cell-based

Serine/threonine-protein kinase 26 (Homo sapiens), sequence (Q9P289 2-416 limits assumed): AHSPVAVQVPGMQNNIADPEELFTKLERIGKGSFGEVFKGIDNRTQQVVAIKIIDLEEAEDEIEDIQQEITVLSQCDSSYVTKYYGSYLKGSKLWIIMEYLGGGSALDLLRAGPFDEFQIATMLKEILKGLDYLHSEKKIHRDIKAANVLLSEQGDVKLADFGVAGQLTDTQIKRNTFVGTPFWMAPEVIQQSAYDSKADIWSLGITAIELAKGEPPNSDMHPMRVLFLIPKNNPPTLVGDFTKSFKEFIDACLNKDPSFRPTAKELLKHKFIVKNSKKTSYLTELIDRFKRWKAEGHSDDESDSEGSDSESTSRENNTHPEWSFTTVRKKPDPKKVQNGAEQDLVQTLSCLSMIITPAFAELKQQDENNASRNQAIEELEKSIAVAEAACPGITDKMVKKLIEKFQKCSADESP
Rho-associated protein kinase 1 (Homo sapiens), sequence (Q13464 2-1354 limits assumed): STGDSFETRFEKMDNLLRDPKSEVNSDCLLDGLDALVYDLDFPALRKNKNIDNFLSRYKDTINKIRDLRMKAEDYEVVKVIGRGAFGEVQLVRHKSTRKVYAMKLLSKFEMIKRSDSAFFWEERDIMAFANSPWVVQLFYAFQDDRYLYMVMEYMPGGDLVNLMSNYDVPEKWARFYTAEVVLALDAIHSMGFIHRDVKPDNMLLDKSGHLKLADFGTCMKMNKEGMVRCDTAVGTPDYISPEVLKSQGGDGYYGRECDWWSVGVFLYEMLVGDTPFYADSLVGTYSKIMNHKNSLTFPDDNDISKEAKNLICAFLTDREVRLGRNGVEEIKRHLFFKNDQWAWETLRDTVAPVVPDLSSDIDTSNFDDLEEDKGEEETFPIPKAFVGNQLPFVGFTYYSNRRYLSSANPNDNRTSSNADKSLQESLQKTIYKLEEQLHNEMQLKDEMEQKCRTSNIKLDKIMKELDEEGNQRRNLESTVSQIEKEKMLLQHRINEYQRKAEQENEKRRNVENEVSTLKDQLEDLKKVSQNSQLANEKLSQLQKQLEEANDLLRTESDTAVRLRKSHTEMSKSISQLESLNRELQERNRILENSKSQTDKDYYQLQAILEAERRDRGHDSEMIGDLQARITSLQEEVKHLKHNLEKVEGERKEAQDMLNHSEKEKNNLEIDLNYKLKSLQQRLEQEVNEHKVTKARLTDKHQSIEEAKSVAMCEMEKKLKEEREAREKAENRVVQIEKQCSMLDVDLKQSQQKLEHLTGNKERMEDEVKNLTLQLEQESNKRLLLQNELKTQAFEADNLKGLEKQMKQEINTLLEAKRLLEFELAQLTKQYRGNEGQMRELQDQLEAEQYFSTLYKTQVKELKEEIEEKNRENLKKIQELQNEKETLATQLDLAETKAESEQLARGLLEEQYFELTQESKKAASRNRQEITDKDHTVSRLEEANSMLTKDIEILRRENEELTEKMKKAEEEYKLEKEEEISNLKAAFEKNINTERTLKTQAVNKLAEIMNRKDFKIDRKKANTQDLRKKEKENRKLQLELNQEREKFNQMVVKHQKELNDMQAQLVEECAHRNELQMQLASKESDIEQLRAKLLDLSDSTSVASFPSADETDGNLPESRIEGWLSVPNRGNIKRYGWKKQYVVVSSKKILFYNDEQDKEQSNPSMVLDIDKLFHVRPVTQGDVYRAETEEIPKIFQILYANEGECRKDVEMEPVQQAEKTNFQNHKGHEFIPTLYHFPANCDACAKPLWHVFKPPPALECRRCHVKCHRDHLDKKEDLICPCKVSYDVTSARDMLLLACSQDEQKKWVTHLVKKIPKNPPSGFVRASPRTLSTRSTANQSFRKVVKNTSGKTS
Cyclin-dependent kinase 19 (Homo sapiens), sequence (Q9BWU1 whole entry): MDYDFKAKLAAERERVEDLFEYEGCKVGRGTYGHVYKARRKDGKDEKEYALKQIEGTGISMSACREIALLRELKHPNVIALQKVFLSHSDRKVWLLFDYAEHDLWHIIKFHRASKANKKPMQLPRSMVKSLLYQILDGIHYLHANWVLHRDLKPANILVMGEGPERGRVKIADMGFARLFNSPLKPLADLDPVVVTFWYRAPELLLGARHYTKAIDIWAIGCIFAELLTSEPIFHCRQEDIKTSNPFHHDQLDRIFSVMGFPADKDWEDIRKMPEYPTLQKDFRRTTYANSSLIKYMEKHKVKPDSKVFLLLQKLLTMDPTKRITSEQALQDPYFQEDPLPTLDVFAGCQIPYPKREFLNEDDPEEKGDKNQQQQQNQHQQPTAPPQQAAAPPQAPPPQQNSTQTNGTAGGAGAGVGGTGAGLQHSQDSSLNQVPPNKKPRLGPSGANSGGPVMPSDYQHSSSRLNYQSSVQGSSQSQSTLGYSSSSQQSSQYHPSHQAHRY
Cyclin-dependent kinase 8 (Homo sapiens), sequence (P49336 whole entry): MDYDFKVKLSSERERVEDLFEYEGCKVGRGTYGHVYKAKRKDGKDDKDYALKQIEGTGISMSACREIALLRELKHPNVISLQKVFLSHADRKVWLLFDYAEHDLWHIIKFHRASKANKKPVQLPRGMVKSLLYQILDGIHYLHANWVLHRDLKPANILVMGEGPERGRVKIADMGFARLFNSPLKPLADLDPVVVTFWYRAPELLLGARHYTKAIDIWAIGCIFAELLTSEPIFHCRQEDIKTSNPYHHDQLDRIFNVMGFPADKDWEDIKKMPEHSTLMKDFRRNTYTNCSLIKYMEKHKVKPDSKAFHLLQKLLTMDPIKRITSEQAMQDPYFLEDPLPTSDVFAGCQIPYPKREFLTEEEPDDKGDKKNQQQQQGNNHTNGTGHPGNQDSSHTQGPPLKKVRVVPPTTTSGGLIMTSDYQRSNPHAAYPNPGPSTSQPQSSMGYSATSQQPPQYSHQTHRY
Bone morphogenetic protein receptor type-1B (Homo sapiens), sequence (O00238 whole entry): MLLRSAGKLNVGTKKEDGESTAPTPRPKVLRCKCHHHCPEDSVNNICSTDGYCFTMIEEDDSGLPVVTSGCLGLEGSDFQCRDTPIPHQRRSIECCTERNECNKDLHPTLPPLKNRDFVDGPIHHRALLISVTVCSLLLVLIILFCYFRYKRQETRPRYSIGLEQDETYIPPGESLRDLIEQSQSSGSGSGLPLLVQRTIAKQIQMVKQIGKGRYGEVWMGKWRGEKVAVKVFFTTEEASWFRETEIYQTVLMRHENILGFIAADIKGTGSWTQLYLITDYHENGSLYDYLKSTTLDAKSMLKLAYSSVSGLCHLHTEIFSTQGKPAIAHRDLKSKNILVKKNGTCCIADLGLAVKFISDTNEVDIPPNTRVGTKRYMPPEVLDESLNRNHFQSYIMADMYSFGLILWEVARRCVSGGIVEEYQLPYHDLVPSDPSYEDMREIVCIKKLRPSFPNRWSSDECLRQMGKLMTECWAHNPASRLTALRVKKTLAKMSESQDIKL
Microtubule-associated serine/threonine-protein kinase 2 (Homo sapiens), sequence (Q6P0Q8 whole entry): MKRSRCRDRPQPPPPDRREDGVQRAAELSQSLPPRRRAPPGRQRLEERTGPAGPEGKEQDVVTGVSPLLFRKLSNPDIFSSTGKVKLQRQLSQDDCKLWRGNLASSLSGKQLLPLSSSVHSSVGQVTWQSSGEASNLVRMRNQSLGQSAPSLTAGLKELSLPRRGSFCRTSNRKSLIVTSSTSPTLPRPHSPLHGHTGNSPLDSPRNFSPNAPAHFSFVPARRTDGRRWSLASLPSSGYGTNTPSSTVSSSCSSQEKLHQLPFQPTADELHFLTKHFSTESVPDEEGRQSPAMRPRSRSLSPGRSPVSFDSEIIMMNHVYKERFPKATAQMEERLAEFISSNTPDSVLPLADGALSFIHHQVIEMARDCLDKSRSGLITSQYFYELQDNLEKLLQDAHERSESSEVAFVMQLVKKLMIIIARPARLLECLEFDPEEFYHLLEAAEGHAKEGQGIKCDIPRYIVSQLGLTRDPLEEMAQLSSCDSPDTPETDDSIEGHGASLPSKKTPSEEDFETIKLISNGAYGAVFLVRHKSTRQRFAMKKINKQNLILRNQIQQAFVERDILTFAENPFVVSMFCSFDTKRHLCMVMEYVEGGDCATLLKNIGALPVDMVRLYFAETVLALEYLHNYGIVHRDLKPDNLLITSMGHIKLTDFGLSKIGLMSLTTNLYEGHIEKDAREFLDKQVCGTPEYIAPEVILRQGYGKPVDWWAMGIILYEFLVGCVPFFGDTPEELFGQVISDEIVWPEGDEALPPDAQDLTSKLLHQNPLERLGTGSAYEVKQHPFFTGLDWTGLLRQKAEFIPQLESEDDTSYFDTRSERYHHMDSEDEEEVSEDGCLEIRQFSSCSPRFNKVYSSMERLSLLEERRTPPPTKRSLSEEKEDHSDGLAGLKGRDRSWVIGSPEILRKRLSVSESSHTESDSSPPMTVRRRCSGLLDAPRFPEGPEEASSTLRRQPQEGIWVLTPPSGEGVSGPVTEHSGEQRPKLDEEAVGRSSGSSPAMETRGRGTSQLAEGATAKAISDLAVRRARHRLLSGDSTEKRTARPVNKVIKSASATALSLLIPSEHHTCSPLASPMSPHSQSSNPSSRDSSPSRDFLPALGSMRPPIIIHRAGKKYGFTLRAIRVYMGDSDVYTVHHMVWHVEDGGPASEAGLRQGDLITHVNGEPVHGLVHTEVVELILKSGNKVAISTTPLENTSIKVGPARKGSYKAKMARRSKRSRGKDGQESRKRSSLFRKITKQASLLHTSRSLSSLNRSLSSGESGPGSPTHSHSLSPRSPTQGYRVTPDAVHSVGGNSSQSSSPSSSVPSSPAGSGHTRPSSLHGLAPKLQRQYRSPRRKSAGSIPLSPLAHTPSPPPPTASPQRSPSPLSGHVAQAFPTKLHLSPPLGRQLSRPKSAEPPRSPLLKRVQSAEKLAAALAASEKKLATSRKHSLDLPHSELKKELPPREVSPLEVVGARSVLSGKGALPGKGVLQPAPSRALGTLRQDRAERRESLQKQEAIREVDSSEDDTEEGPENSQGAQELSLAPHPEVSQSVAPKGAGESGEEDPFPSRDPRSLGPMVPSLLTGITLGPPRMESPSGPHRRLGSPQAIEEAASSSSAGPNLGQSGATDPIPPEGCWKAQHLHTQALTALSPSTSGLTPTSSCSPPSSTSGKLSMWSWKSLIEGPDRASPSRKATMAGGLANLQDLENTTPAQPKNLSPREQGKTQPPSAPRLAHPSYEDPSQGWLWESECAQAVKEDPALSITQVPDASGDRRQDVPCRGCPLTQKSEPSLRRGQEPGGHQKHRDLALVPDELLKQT

Row | Compound | inhibition [1] [%] | inhibition [2] [%] | inhibition [3] [%] | inhibition [4] [%] | inhibition [5] [%] | inhibition [6] [%] | inhibition [7] [%] | inhibition [8] [%] | inhibition [9] [%] | inhibition [10] [%] | inhibition [11] [%] | inhibition [12] [%] | Activity (MM1.S)
1 | COc1cc(NS(=O)(=O)C2CC2)ccc1-c1cnc(N)c(-c2ccc3c(c2)CCNC3=O)c1 | 0 | 0 | – | 0 | – | – | 75 | 0 | 0 | 0 | – | – | –
2 | Nc1ncc(-c2ccc(NS(=O)(=O)C3CC3)cc2OC2CCCCC2)cc1-c1ccc2c(c1)CCNC2=O | – | – | 0 | 0 | 0 | – | > 90 | 0 | – | 0 | – | – | –
3 | Nc1ncc(-c2cccc([N+](=O)[O-])c2F)cc1-c1ccc2c(c1)CCNC2=O | – | – | – | – | – | 0 | – | – | – | – | 0 | 0 | Active
4 | Nc1ncc(-c2cccc3ncsc23)cc1-c1ccc2c(c1)CCNC2=O | 0 | 0 | 50 | 50 | < 75 | 0 | – | – | 0 | 0 | 0 | 0 | Active

The next lines start with results.

Row | inhibition [1] [%] | inhibition [2] [%] | inhibition [3] [%] | inhibition [4] [%] | inhibition [5] [%] | inhibition [6] [%] | inhibition [7] [%] | inhibition [8] [%] | inhibition [9] [%] | inhibition [10] [%] | inhibition [11] [%] | inhibition [12] [%] | Compound | Activity (MM1.S)
5 | 0 | 0 | 0 | 0 | 0 | < 75 | 0 | 0 | – | – | – | – | Nc1ncc(-c2ccc(NS(=O)(=O)C3CC3)cc2F)cc1-c1ccc2c(c1)CCNC2=O | –
6 | 0 | 0 | 0 | 0 | < 90 | < 90 | – | – | 0 | – | 0 | 0 | CN(C1CC1)S(=O)(=O)c1ccc(-c2cnc(N)c(-c3ccc4c(c3)CCNC4=O)c2)c(F)c1 | Active
